Data: patent publication US20120202818A1, “UREIDOPHENYL SUBSTITUTED TRIAZINE DERIVATIVES AND THEIR THERAPEUTICAL APPLICATIONS” (CALIFORNIA CAPITAL EQUITY, LLC, priority 2009, published 2012)

Tests used:
Type in all cases: biochemical
[1] = target: T1, Flt3 kinase (Homo sapiens, UniProt P36888); assay: Flt3 kinase assay (KinaseProfiler / Kinase HotSpot); settings: compound at 1 μM
T1 construct: purchased Millipore (KinaseProfiler service) and/or Reaction Biology Corp. (Kinase HotSpot service)
T1 sequence (P36888 27-993): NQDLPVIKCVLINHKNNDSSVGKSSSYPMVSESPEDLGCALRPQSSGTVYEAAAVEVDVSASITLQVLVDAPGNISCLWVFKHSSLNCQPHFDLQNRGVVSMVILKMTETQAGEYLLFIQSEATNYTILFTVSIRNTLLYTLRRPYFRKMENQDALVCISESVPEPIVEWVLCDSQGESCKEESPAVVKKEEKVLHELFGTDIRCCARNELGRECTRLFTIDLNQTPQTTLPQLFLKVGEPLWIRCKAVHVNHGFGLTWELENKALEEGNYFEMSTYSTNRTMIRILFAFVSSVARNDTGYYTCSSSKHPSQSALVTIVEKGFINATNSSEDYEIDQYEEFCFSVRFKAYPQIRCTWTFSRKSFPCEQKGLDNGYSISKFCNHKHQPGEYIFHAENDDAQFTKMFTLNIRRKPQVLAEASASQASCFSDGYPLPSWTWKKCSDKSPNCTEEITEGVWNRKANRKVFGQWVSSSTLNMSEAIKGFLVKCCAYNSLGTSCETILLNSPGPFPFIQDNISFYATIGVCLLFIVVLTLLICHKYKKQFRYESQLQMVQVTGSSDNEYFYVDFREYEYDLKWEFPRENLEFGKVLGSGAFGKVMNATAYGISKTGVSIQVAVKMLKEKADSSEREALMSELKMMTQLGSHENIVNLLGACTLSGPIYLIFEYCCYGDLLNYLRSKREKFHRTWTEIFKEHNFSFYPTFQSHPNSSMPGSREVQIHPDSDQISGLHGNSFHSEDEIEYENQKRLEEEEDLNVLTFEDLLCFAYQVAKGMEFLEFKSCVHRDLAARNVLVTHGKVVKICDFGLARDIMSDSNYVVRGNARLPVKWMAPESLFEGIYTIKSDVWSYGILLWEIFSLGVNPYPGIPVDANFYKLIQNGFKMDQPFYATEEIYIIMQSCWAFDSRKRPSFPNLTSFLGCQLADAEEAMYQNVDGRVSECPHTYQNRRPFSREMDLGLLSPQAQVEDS
Protocol: (§1) This example illustrated c-Src kinase, Aurora-A kinase, Flt3 kinase, Ret kinase and TrkA Kinase Assays of selected Compounds from this invention (referred to Daniele Fancelli et al, J. Med. Chem., 2006, 49 (24), pp 7247-7251). The KinaseProfiler™ Service Assay Protocols (Millipore) were used to test the kinase inhibiting activity of novel compounds from this invention. To do this, the buffer composition was as: 20 mM MOPS, 1 mM EDTA, 0.01% Brij-35, 5% Glycerol, 0.1% β-mercaptoethanol, 1 mg/mL BSA. Test compounds were initially dissolved in DMSO at the desired concentration, then serially diluted to the kinase assay buffer. In a final reaction volume of 25 μL, Aurora-A(h) (5-10 mU) is incubated with 8 mM MOPS pH 7.0, 0.2 mM EDTA, 200 μM LRRASLG (Kemptide), 10 mM MgAcetate and [γ^33P-ATP]. The reaction was initiated by the addition of the MgATP mix. After incubation for 40 minute at room temperature, the reaction was stopped by addition of 5 μL of a 3% phosphoric acid solution. 10 μL of the reaction was then spotted onto a P30 filtermat and washed three times for 5 minutes in 50 mM phosphoric acid and once in methanol prior to drying and scintillation counting. Wells containing substrate but no kinase and wells containing a phosphopeptide control were used to set 0% and 100% phosphorylation value, respectively.
(§2) Also Kinase Hotspot ^SM kinase assay was used to test the compounds for IC50 or % inhibitions (Reaction Biology Corp.). Inhibitor IC50 values were determined by titration of compound at the optimal kinase concentration (Kinase EC50).

[2] = target: T2, TrkA Kinase (Homo sapiens, UniProt P04629); assay: TrkA kinase assay (KinaseProfiler / Kinase HotSpot); settings: compound at 1 μM
T2 construct: purchased Millipore (KinaseProfiler service) and/or Reaction Biology Corp. (Kinase HotSpot service)
Protocol: as §1, §2

[3] = target: T3, c-Src kinase (Homo sapiens, UniProt P12931); assay: c-Src kinase assay (KinaseProfiler / Kinase HotSpot); settings: compound at 1 μM; read-out: % Inhibition @1 μM cSrc
T3 construct: purchased Millipore (KinaseProfiler service) and/or Reaction Biology Corp. (Kinase HotSpot service)
Protocol: as §1, §2

[4] = target: T4, Aurora-A kinase (Homo sapiens, UniProt O14965); assay: Aurora-A kinase assay (KinaseProfiler / Kinase HotSpot); settings: compound at 1 μM; read-out: % Inhibition @1 μM Auroro-A
T4 construct: purchased Millipore (KinaseProfiler service) and/or Reaction Biology Corp. (Kinase HotSpot service)
T4 sequence (O14965 1-403): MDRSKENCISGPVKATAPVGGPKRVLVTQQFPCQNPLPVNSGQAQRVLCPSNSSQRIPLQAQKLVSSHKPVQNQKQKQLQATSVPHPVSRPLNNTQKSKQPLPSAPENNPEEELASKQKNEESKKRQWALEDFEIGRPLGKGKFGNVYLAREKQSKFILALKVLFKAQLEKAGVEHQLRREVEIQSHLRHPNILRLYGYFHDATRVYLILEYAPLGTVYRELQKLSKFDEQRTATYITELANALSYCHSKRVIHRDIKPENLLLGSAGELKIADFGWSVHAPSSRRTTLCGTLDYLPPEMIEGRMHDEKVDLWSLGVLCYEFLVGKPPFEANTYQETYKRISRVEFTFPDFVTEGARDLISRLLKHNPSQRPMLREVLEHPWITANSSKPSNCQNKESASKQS
Protocol: as §1, §2

[5] = target: T5, Ret kinase (Homo sapiens, UniProt P07949); assay: Ret kinase assay (KinaseProfiler / Kinase HotSpot); settings: compound at 1 μM
T5 construct: purchased Millipore (KinaseProfiler service) and/or Reaction Biology Corp. (Kinase HotSpot service)
Protocol: as §1, §2

T3 sequence (P12931 whole entry): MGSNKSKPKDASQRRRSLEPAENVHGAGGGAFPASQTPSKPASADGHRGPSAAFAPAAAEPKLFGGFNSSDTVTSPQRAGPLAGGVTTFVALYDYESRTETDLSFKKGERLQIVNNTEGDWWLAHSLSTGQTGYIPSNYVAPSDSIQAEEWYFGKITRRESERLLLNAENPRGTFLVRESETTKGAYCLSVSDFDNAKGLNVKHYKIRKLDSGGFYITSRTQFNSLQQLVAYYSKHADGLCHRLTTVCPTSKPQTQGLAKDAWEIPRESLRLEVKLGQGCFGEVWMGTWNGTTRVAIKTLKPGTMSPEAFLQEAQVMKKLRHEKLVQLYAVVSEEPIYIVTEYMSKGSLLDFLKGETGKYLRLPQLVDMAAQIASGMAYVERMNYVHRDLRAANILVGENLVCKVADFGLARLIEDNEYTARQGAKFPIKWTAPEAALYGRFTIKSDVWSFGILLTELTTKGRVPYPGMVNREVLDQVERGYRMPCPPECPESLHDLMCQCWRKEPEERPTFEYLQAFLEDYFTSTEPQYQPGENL
T5 sequence (P07949 29-1114): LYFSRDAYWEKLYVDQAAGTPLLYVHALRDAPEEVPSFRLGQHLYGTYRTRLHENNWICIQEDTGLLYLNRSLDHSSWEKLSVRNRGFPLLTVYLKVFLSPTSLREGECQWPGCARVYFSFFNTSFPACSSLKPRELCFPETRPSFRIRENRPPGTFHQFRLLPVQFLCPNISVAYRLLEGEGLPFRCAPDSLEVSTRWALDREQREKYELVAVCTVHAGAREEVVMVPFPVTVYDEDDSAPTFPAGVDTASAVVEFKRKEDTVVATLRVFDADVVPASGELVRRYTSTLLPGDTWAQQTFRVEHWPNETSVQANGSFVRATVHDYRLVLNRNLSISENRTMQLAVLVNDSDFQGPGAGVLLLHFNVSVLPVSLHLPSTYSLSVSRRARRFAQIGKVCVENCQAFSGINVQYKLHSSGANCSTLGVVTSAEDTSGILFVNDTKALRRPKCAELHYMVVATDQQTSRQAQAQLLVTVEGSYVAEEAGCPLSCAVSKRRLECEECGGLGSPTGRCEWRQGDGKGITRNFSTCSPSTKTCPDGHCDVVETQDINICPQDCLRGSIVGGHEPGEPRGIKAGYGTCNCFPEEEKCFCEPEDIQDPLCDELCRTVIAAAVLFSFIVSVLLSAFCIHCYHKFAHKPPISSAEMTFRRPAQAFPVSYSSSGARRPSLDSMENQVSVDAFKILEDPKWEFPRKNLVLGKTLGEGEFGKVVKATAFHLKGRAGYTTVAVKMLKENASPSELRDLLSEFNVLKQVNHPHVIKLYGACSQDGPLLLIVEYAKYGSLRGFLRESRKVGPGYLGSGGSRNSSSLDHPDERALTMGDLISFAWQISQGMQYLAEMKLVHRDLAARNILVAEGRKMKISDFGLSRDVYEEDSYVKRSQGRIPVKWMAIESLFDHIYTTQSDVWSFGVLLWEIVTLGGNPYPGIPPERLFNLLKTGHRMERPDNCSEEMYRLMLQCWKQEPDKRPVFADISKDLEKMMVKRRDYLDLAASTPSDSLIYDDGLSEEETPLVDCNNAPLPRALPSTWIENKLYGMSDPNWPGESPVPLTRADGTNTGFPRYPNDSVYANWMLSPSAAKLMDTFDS
T2 sequence (P04629 33-796): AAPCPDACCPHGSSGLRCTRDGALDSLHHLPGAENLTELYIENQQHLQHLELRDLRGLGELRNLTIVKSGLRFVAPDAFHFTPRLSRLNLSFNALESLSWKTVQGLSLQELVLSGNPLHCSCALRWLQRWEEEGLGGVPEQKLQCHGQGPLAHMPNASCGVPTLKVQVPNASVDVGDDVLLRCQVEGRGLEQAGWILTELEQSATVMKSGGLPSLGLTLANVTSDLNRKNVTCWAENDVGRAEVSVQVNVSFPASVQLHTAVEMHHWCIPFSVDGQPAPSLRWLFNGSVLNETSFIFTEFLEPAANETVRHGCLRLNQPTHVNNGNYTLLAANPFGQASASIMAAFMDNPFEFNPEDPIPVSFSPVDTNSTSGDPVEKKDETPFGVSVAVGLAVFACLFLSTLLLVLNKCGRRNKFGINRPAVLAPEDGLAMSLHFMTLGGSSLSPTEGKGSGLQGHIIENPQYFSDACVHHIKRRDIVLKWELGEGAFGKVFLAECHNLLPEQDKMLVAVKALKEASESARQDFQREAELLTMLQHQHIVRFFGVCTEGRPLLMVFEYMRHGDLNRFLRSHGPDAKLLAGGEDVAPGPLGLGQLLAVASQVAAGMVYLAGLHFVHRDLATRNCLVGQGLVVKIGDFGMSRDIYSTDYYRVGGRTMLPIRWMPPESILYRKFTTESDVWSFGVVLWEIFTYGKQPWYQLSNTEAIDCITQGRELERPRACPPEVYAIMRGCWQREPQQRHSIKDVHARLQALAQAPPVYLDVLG

| inhibition at 1 µM [1] | inhibition at 1 µM [2] | inhibition at 1 µM [3] | inhibition at 1 µM [4] | inhibition at 1 µM [5] | Structure (SMILES) |
| --- | --- | --- | --- | --- | --- |
| > 90% | 50 to 90% | 50 to 90% | 50 to 90% | 50 to 90% | Cc1cnc(Nc2nc(Sc3ccc(N)cc3)nc(N3CCN(C)CC3)n2)s1 [Example 2] |
| 50 to 90% | 50 to 90% | < 50% | 50 to 90% | < 50% | Cc1cnc(Nc2nc(Sc3cccc(N)c3)nc(N3CCN(C)CC3)n2)s1 [Example 3] |
| 50 to 90% | 50 to 90% | < 50% | > 90% | 50 to 90% | Cc1cnc(Nc2nc(Sc3ccc(NC(=O)Nc4ccccc4)cc3)nc(N3CCN(C)CC3)n2)s1 [Example 4] |
| < 50% | < 50% | < 50% | > 90% | 50 to 90% | CCc1nc(Nc2ccc(NC(=O)Nc3ccc(C(F)(F)F)cc3)cc2)nc(Nc2cc(C)[nH]n2)n1 [Example 12] |
| < 50% | < 50% | < 50% | < 50% | < 50% | CCNC(=O)Nc1ccc(Nc2nc(CC)nc(Nc3cc(C)n(C(=O)NCC)n3)n2)cc1 [Example 13] |
| < 50% | < 50% | < 50% | 50 to 90% | < 50% | CCc1nc(Nc2ccc(NC(=O)NC(C)C)cc2)nc(Nc2cc(C)n(C(=O)NC(C)C)n2)n1 [Example 14] |
| < 50% | < 50% | < 50% | < 50% | < 50% | CCc1nc(Nc2ccc(NC(=O)Nc3ccccc3)cc2)nc(Nc2ncc(C)s2)n1 [Example 15] |
| < 50% | < 50% | < 50% | < 50% | < 50% | CCc1nc(Nc2ccc(NC(=O)NC(C)C)cc2)nc(Nc2cc(C)[nH]n2)n1 [Example 21] |
| < 50% | < 50% | < 50% | < 50% | < 50% | CCNC(=O)Nc1ccc(Nc2nc(CC)nc(Nc3cc(C)[nH]n3)n2)cc1 [Example 22] |
| < 50% | < 50% | < 50% | > 90% | < 50% | CCc1nc(Nc2ccc(NC(=O)Nc3ccccc3C)cc2)nc(Nc2cc(C)[nH]n2)n1 [Example 23] |
| 50 to 90% | < 50% | < 50% | 50 to 90% | 50 to 90% | CCc1nc(Nc2ccc(NC(=O)Nc3ccc(OC)cc3)cc2)nc(Nc2cc(C)[nH]n2)n1 [Example 24] |
| < 50% | < 50% | < 50% | 50 to 90% | > 90% | CCc1nc(Nc2ccc(NC(=O)NCc3ccccc3)cc2)nc(Nc2cc(C)[nH]n2)n1 [Example 25] |
